Consider two compounds from ChEMBL document CHEMBL1240525, “Synthesis of cyclic di-nucleotidic acids as potential inhibitors targeting diguanylate cyclase” (Bioorg Med Chem, 2010).

One assay has as its system Synechocystis sp. As to the kind of experiment: Inhibition of Synechocystis sp. recombinant diguanylate cyclase Slr1143 expressed in Escherichia coli DH5alpha at 100 uM after 2 mins.
Assay [1] can be described thus: Inhibition of Synechocystis sp. recombinant diguanylate cyclase Slr1143 expressed in Escherichia coli DH5alpha after 2 mins.

Structures are written as SMILES. Activity calls are given as the source filed them. The rule behind the calls is not given here.

A word on the inhibition: it is the drop in the measured response relative to a control, in per cent. Regarding `O=c1ccn([C@H]2O[C@@H]3COP(=O)(O)O[C@@H]4[C@H](O)[C@@H](n5ccc(=O)[nH]c5=O)O[C@H]4COP(=O)(O)O[C@H]3[C@H]2O)c(=O)[nH]1`, the inhibition entry with Synechocystis sp. was “Active”.

In general, IC50 refers to the concentration that inhibits the measured activity by half. For `O=P1(O)OC[C@H]2O[C@H](n3cnc4c(O)ncnc43)[C@H](O)[C@@H]2OP(=O)(O)OC[C@@H]2O[C@H](n3cnc4c(O)ncnc43)[C@@H](O)[C@H]2O1`, the inhibition in the assay on Synechocystis sp. is 60%. Besides, the IC50 in assay [1] stood at 68.9 µM.
